Legend:
[1] = test system: human prostatic carcinoma cells, PC-3 (subcutaneous xenografts); assay: subcutaneous PC-3 xenografts in nude mice, tumor volume; format: in vivo, NCr athymic nude mice
Protocol: (§1) Pathogen-free 4 to 6 week-old male NCr athymic nude mice (Taconic, Germantown, N.Y.) were housed in sterilized, filter-topped cages kept in laminar flow isolators (Forma Scientific, Marietta, Ohio), and fed autoclaved food and water ad libitum. Four animals were housed in each cage. Mice were acclimated to the vivarium for one week prior to their use in study protocols. All procedures involving the mice were performed under sterile conditions in a laminar flow hood (Forma Scientific). All studies were approved by the institutional animal care and use committee.
(§2) Human PC-3 prostate cancer cells (2×10^6 cells; American Type Culture Collection CRL-1435) were inoculated subcutanteously into the flanks of nude mice in 0.1 ml HBSS (Hank's balanced salt solution) (Life Technologies). For implantation of orthotopic 201T cells, animals were fully anesthetized in a Harvard small animal anesthesia chamber using nebulized Metafane (Pitman Moore, Inc., Washington Crossing, N.J.). […] The needle was advanced through the chest wall into the lung tissue, and the tumor cell inoculum of 2×10^6 cells was then dispersed in a final volume of 0.1 ml HBSS/Matrigel (1:1 ratio). Animals were allowed to recover from anesthesia for approximately 10 min under heat lamps to maintain body temperature. The orthotopic implantation technique is further described in Hamide et al., 1997. For tumors implanted subcutaneously, tumors were measured in a blind fashion with dial calipers, and the volume was calculated using the formula ½*π(W*L*H).
Potential anti-angiogenic and anti-tumor effects of the PAF antagonist BN-50730 were tested on human tumor xenografts in the NCr athymic nude mice. Thirty mice were implanted with subcutaneous human prostatic carcinoma cells, PC-3, at day 0, and were randomized into three groups. Mice were treated either with a placebo, 30 mg/kg BN-50730, or 60 mg/kg BN-50730 at days 2, 4, 6, 8, 10, and 12 as shown in the schedule of FIG. 2b. Animals were sacrificed at day 13, 17, 21 and 28, and the volumes of the subcutaneous tumors were measured using dial calipers and the formula ½*π(W*L*H) as described in Example 1.
In a separate experiment to determine the effects of a high dose of LAU-8080 dissolved in 2-hydroxypropyl-β-cyclodextran (instead of DMSO) on PC-3 xenografts, mice were treated as shown in FIG. 4b. Tumors were implanted subcutaneously at day 0. The mice were then divided into two groups to receive injections of either a placebo or 120 mg/kg LAU-8080 on days 1, 3, 5, 8, 10, and 12. Mice were sacrificed on days 6, 8, 11, 13, 15, 18, 20, 21, and 25; and the volumes of the tumors were measured as described above.
Tumors were implanted at day 0. The tumors were allowed to expand to 100 mm^3 before treatment was initiated as shown in the schedule in FIG. 10b. Tumor measurements were begun on day 9. Treatments of the different groups were on days 13, 15, 17, 20, 22, 24, 27, 29, and 31. Tumor measurements were taken on days 13, 16, 20, 24, 27, 31, 37, and 40.

[2] = test system: human 201T lung adenocarcinoma cells (orthotopic xenografts); assay: orthotopic 201T xenografts in nude mice, mediastinal block weight; format: in vivo, NCr athymic nude mice; conditions: 60 mg/kg at days 2, 4, 6, 8, 10, 12, sacrifice day 56
Protocol: as §1
as §2, with “Animals were allowed to recover from anesthesia for approximately 10 min under heat lamps to maintain body temperature. The orthotopic implantation technique is further described in Hamide et al., 1997.” left out, “½*π(W*L*H). […]” for “½*π(W*L*H).”

PC-3 cells = assay: in vitro cell growth assay, [3H]thymidine incorporation, PC-3; format: cell-based, human
Protocol: The human prostatic carcinoma cell line PC-3 was grown in RPMI 1640 (Life Technologies, Grand Island, […].) supplemented with 10% fetal bovine serum (“FBS”, Life Technologies). The human cell line 201T was established from a poorly differentiated lung adenocarcinoma, as previously described using the method of J. M. Siegfried et al., “Secretion of autocrine growth factors by cultured lung tumors: effects on neoplastic lung epithelial cells,” Lung Cancer, vol. 4, pp. 205–209 (1988). See also J. P. Hamide et al., “Percutaneous implantation of non-small cell lung carcinoma: technique and observations,” Academ. Radiolo., vol. 4, pp. 629–633 (1997). The cell line was grown in a medium conditioned for 48 hours by the cell line A549 (ATCC CCL-185) containing 1% FBS (HyClone Laboratories, Logan, Utah) as previously described in J. M. Siegfried, “Culture of primary lung tumors using medium conditioned by a lung carcinoma cell line,” J. Cell. Biochem., vol. 41, pp. 91–95 (1988). This medium is referred to as CM+1% FBS.
PC-3 cells were exposed to 0, 0.1, 1, 2.5, 5, and 10 μM BN-50730 in RPMI medium supplemented with 10% FBS and [^3H]thymidine (Amersham Life Science, Arlington Heights, Ill.). […] PC-3 and 201T cells were also exposed to 10 μM BN-50730 for 24, 48, 72 and 144 hours, and cell growth assessed as above. […]

[3] = visual observation of side effects in treated mice; format: in vivo, NCr athymic nude mice; conditions: mice treated at any dose
[4] = test system: PAF binding sites (microsomal intracellular membranes; synaptosomal plasma membrane); conditions: Marcheselli and Bazan, 1994; cited from earlier work

COc1ccc(NC(=O)N2CCc3c(sc4c3C(c3ccccc3Cl)=NCc3nnc(C)n3-4)C2)cc1 [BN-50730, tetrahydro-4,7,8,10 methyl-1 (chloro-2 phenyl)-6 (methoxy-4 phenyl-carbomoyl)-9 pyrido [4′,3′-4,5] thieno [3,2-f] triazolo-1,2,4[4,3-α]diazepine-1,4]
tumor size (volume) of subcutaneous PC-3 xenografts ([1]; 30 mg/kg or 60 mg/kg at days 2, 4, 6, 8, 10, 12, measured day 13, 17, 21, 28, vs placebo, p<0.001): significant dose-dependent reduction in tumor size | tumor volume of subcutaneous PC-3 xenografts, high dose ([1]; 120 mg/kg in 2-hydroxypropyl-β-cyclodextran on days 1, 3, 5, 8, 10, 12, vs placebo, p=0.0001, F-test): significantly smaller tumors | time at which tumors began to increase in size ([1]; 120 mg/kg on days 1, 3, 5, 8, 10, 12, PC-3 xenografts): did not begin to increase in size until after treatment was stopped at day 12 | tumor size, BN-50730-treated vs IFN-2a-treated mice ([1]; established PC-3 xenografts, 120 mg/kg vs 1,000 U, p=0.089, F-test): no significant difference | tumor size of established PC-3 xenografts vs control animals ([1]; tumors expanded to 100 mm^3 before treatment, treatment days 13-31, 120 mg/kg BN-50730 and/or 1,000 U IFN-2a, p<0.001, F-test): significantly smaller tumors | mediastinal block weight, placebo-treated vs LAU-8080-treated ([2]; p=0.011, Student's t-test): significantly larger in placebo-treated animals | mediastinal weight vs control litter mates without tumor cell implantation ([2]; p=0.800, Student's t-test): the same as for control liter mates | PC-3 cell proliferation, time course (PC-3 cells; 10 μM at 1, 2, 3 or 6 days, p=0.556, F-test): no effect | PC-3 cell proliferation, concentration response (PC-3 cells; 0.01, 0.1, 1, 2.5, 5, 10 μM for 4 days, p=0.529 for 10 μM): not affected | side effects, visual observations [3]: no apparent side effects | displacement of PAF from microsomal membranes [4]: displace PAF from microsomal membranes | displacement of PAF from the synaptosomal, plasma membrane [4]: not from the synaptosomal, plasma membrane
